IC50 data for one compound are collected here from patent US7772183B2 (Bristol-Myers Squibb Company, priority 2005, dated 2010).

The test system of experiment [1] is human pancreatic chymotrypsin. Briefly: Specificity assay, chymotrypsin. It is filed as biochemical. The note with it: read-out: Chymotrypsin activity in the specificity assays. As for the experimental part: The specificities of compounds of the present disclosure were determined against a variety of serine proteases: human neutrophil elastase (HNE), porcine pancreatic elastase (PPE) and human pancreatic chymotrypsin and one cysteine protease: human liver cathepsin B. In all cases, a 96-well plate format protocol using colorimetric p-nitroaniline (pNA) substrate or fluorometric Amino-Methyl-Coumarin (AMC) substrate, specific for each enzyme was used as described previously (PCT Patent Application No. WO 00/09543) with some modifications. All enzymes were purchased from Sigma or EMDbiosciences while the substrates were from Bachem.
Each pNA assay included a 2 h enzyme-inhibitor pre-incubation at room temperature followed by addition of substrate and hydrolysis to ˜15% conversion as measured on a Spectramax Pro microplate reader. The cathepsin B assay was initiated by adding substrate to a 10 min enzyme-inhibitor pre-incubation at room temperature, and the assay plate measured immediately using the Cytofluor Series 4000. Compound concentrations varied from 100 to 0.4 μM depending on their potency.
The final conditions for each assay were as follows: […]
The percentage of inhibition was calculated using the formula: [1−((UVinh−UVblank)/(UVctl−UVblank))]×100 […]

Experiment [2] deals with T1, HCV NS3/4A protease complex, J4L6S strain (Hepatitis C virus genotype 1b, UniProt O92972, C1454S/C1711G).
T1 construct: DNA encoding the recombinant HCV NS3/4A protease complex (amino acids 1027 to 1711) for these strains; inferred from the pET21b vector and Ni-NTA purification; made in house; host or cells: Escherichia coli BL21 (DE3), pET21b
T1 sequence (O92972 1027-1711 C1454S/C1711G, one chain of several): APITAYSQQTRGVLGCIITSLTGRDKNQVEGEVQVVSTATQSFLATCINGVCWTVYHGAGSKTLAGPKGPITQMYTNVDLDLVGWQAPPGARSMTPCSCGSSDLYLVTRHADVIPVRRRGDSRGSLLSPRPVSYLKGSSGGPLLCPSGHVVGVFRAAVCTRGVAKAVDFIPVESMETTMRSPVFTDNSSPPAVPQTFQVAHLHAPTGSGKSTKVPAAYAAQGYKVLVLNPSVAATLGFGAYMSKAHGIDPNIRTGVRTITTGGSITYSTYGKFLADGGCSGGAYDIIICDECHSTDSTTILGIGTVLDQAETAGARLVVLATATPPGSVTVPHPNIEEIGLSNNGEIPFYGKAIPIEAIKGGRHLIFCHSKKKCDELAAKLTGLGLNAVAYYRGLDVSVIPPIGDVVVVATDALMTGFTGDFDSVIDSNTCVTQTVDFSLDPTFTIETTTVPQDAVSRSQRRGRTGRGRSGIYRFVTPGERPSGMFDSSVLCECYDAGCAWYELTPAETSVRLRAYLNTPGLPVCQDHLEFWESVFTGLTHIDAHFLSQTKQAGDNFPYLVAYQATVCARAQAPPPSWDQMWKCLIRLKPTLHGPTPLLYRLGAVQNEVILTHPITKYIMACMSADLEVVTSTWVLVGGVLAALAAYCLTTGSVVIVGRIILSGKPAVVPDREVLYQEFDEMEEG
As to the kind of experiment: FRET peptide assay to monitor HCV NS3/4A proteolytic activity (J4L6S strain). It is filed as biochemical. The source says:
HCV NS3 protease complexes, derived from the BMS strain, H77 strain or J4L6S strain, were generated, as described below. These purified recombinant proteins were generated for use in a homogeneous assay (see below) to provide an indication of how effective compounds of the present disclosure would be in inhibiting HCV NS3 proteolytic activity.
Serum from an HCV-infected patient was obtained from Dr. T. Wright, San Francisco Hospital. An engineered full-length cDNA (compliment deoxyribonucleic acid) template of the HCV genome (BMS strain) was constructed from DNA fragments obtained by reverse transcription-PCR (RT-PCR) of serum RNA (ribonucleic acid) and using primers selected on the basis of homology between other genotype 1a strains. From the determination of the entire genome sequence, a genotype 1a was assigned to the HCV isolate according to the classification of Simmonds et al. (See P Simmonds, K A Rose, S Graham, S W Chan, F McOmish, B C Dow, E A Follett, P L Yap and H Marsden, J. Clin. Microbiol., 31(6), 1493-1503 (1993)). […]

On to `CC(C)(C)OC(=O)N[C@H]1CCCCC/C=C\[C@@H]2C[C@@]2(C(=O)NS(=O)(=O)C2CC2)NC(=O)[C@@H]2C[C@@H](OC(=O)c3ccc(C#N)cc3)CN2C1=O` [Compound 26, 18-(4-cyanobenzoyloxy)-14-tert-butoxycarbonylamino-4-cyclopropylsulfonylaminocarbonyl-2,15-dioxo-3,16-diazatricyclo-[14.3.0.0^4,6]-nonadec-7-ene], for which the IC50 in experiment [1] is more than 100000 nM; in experiment [2] it was 0.23 nM.
